Assay [1] addresses T1, NR2B subunit of the NMDA receptor (Rattus norvegicus, UniProt P35439+Q00960).
T1 construct: The forebrain membrane specimen of male rats of an SD strain; from tissue; host or cells: rat (SD strain, male) forebrain membranes
Put plainly: Antagonistic activity at rat NMDA receptor NR2B subunit: inhibition of [3H]ifenprodil binding to rat forebrain membrane. The method, then:
Antagonistic Activity at Rat NMDA Receptor NR2B Subunit
The forebrain membrane specimen of male rats of an SD strain (final concentration: 250 μg protein/mL), [^3H]-ifenprodil [diluted with an HEPES buffer (20 mmol/L HEPES-KOH and 100 μmol/L trifluoroperazine (pH 7.4)) to give the final concentration of 4 nmol/L] and a test compound (each being diluted with an HEPES buffer to give the final concentration of […]) were mixed, and incubated at 25° C. for 90 minutes shading from light. The above-incubated membrane was recovered to a G/F-B filter using a cell harvester (Brandel; M-24) to stop the reaction. The resulting membrane was further washed with an HEPES buffer for three times, and radioactivity on the filter was measured (Beckman LS 6500). The antagonistic activity of the test compound for an NMDA receptor NR2B subunit was calculated by the following formula as an inhibiting rate for binding of [^3H]ifenprodil to the NR2B subunit of the NMDA receptor. The result is shown in Table 6 in terms of the concentration (IC50 value) of the test compound for 50% inhibition of binding of [^3H]ifenprodil to the NR2B subunit of the NMDA receptor. [formula] Non-specific binding amount: Binding amount of [^3H]ifenprodil in the presence of 10 μmol/L of ifenprodil Total binding amount: Binding amount of [^3H]ifenprodil in the absence of the test compound
Binding amount in the present of test compound: Binding amount of [^3H]ifenprodil in the presence of the test compound in each concentration

Assay [2] has as its system strangulated nerve-damaged rats. Kind of assay: Suppressive effect on neurogenic pain (allodynia, von Frey pain threshold) in strangulated nerve-damaged rats. The assay is classed as in vivo, rat. As to conditions: male SD rats, orally administered at the dose of 5 and 10 mg/kg, measured 1, 3 and 5 hours after administration. The method, then:
Suppressive Effect of the Compound to Neurogenic Pain in Strangulated Nerve-damaged Rats
The test was carried out in accordance with a method by G. M. Pitcher, et al. [Pain, 1999,. vol. 83, pages 37 to 46] which is an improvement of a method by T. Mosconi and K. Kruger [Pain, 1996, vol. 64, pages 37 to 57].
Using male rats of an SD strain (Sprague-Dawley rats), strangulated nerve-damaged rats were prepared by removing sciatic nerve under anesthetizing with pentobarbital, and covering with a PE-60 polyethylene tube (trade name: Intramedic; size: PE-60; manufactured by Becton Dickinson) having a length of 2 mm over the removed area. After 14 to 21 days from the preparation, the following test was carried out. Incidentally, a pain threshold (g) was calculated by the following method, and the rats (strangulated rat-damaged rats) showing less than 4 g of a 50% pain threshold were used for the test in which one group comprised six rats. […]
For the measurement of allodynia which is characteristically noted in neurogenic pain, a von Frey filament (trade name: touch test sensory evaluator; catalog number: model 58011) was used and the result is expressed as a pain threshold (g). The pain threshold (g) was calculated by the up-down method by W. J. Dixon [Annual Review of Pharmacology and Toxicology, 1980, vol. […]

Setting [3] is: forebrain membrane of male SD rats, 4 nmol/L [3H]-ifenprodil, 25° C., 90 minutes, read-out: IC50, concentration for 50% inhibition of binding of [3H]ifenprodil to the NR2B subunit of the NMDA receptor.

Read-outs that look alike come from different tables or passages of the source.

T1 sequence (Q00960 27-1482, other chains not shown): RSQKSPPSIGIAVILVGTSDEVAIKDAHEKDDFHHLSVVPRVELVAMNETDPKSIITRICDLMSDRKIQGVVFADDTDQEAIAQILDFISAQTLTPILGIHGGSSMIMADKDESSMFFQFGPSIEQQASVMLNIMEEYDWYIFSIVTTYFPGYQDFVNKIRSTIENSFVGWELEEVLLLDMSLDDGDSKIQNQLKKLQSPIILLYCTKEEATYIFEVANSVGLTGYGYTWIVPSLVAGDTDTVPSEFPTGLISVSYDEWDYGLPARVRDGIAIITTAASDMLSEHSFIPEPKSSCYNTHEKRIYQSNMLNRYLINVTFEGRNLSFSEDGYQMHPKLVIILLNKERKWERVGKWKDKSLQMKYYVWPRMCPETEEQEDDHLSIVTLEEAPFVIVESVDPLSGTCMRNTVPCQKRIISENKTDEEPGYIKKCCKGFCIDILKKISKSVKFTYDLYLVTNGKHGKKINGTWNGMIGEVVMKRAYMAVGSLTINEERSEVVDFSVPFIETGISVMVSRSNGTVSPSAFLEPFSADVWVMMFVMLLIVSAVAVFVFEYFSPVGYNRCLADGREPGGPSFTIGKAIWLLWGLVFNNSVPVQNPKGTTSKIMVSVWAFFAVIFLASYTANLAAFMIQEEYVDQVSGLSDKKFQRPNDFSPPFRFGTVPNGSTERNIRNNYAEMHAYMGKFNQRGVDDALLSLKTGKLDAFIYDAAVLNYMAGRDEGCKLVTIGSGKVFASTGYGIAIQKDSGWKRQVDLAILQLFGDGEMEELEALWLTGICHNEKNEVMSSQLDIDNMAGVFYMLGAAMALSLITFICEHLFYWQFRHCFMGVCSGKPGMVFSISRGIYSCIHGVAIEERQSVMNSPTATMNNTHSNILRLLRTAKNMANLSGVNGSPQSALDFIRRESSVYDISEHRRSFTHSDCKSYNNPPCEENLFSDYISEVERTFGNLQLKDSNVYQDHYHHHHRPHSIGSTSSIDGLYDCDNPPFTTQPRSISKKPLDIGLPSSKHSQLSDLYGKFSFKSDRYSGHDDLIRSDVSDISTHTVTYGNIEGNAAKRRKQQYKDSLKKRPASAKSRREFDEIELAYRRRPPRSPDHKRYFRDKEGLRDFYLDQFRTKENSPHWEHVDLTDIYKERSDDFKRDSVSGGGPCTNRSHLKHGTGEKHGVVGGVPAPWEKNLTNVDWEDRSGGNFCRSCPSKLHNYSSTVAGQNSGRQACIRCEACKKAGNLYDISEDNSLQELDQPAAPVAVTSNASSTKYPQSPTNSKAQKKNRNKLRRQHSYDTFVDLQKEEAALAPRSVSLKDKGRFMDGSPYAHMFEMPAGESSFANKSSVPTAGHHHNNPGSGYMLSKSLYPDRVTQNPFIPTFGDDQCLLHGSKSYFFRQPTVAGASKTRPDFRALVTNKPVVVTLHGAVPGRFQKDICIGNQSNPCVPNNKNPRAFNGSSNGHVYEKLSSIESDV

As for `CC(C(O)c1ccc2[nH]c(=O)sc2c1)N1CCC(O)(c2cccs2)CC1` (racemic) [Compound 1, (±)-threo-6-{1-Hydroxy-2-[4-hydroxy-4-(thiophenee-2-yl)piperidino]propyl}benzothiazol-2(3H)-one], the IC50 in assay [1] worked out at 2 nM.

In assay [1], `CC(C(O)c1ccc2[nH]c(=O)sc2c1)N1CCC(O)(c2cccs2)CC1` (racemic) [Compound 2, (±)-erythro-6-{1-hydroxy-2-[4-hydroxy-4-thiophenee-2-yl)piperidino]propyl}benzothiazol-2(3H)-one] had an IC50 of 4.1 nM.

For the compound `CC(C(O)c1ccc2c(c1)CCC(=O)N2)N1CCC(O)(c2cccs2)CC1` (racemic) [Compound 6, (±)-threo-6-{1-Hydroxy-2-[4-hydroxy-4-(thiophene-2-yl)piperidino]propyl}-3,4-dihydroquinolin-2(1H)-one], the IC50 in assay [1] (setting [3]) turned out to be 4.6 nM. In addition, in assay [2], the “improvement of allodynia (pain threshold, von Frey filament) versus Solvent treated group” value is “significantly improved”.

Turning to `CC(C(O)c1ccc2c(c1)CCC(=O)N2)N1CCC(O)(c2cccs2)CC1` (racemic) [Compound 7, (±)-erythro-6-{1-Hydroxy-2-[4-hydroxy-4-(thiophene-2-yl)piperidino]propyl}-3,4-dihydroquinolin-2(1H)-one], in assay [1] (setting [3]), the IC50 worked out at 5.5 nM.

As to `O=c1[nH]c2ccc(C(O)CN3CCC(O)(c4cccs4)CC3)cc2s1` (centres unmarked) [Compound 5, 6-{1-Hydroxy-2-[4-hydroxy-4-(thiophene-2-yl)-piperidino]ethyl}benzothiazol-2(3H)-one], the IC50 in assay [1] is 2.9 nM.

For the compound `O=C1CCc2cc(C(O)CN3CCC(O)(c4cccs4)CC3)ccc2N1` (centres unmarked) [Compound 10], the IC50 in assay [1] (setting [3]) turned out to be 5.2 nM. The “improvement of allodynia (pain threshold, von Frey filament) versus Solvent treated group” value in assay [2] is “significantly improved”.

The values above are taken from patent US20070185168A1, “Piperidine derivatives” (priority 2004, published 2007).
